According to patent publication US11596615B2, “Compositions and methods for treatment of insulin resistance” (Temple University—Of The Commonwealth System Of Higher …, priority 2016, dated 2023):
Structures can show the parent of a compound that is named as a salt. Where two headings read alike, the source gives them in different places.

Tests used:
[1] = Solubility in water, DMSO and PBS solubility assay; format: physicochemical
Protocol: The title compound was determined to be soluble in water or DMSO at a concentration of at least 10 mM.

GLUT4 = GLUT4 carbonylation in adipose tissue of HFD mice by MRM; format: in vivo, C57BL/6J mice; conditions: about 10 mg/kg per day in water, two weeks, n=8, P<0.02, FIG. 8A
Excerpt: MRM-MS is a quantitative mass spectrometry-based target technology that generates unique fragment ions associated with their corresponding precursor ions. These ions can be detected and quantified in complex matrix samples. The quantitation of peptides is obtained measuring the intensity of the fragment ions. To detect carbonylated GLUT4, specific peptides were selected. The parent ion for the carbonylated GLUT4 sequence LTGWADVSGVLAELKDEK-4HNE (SEQ ID NO:2) with triple charge mass is 696.381 m/z. After fragmentation of the parent ion, relative daughter ions: 1101.94, 788.4758, 917.5138, 988.5555, 722.4186, and 481.9482 m/z were identified and used for the quantification of the carbonylated Glut 4 peptide. […] This internal standard peptide allows a relative quantification because it is used for normalization of the intensity of each GLUT4 peptide within the same sample.
MRM analyses were performed with a DIONEX UltiMate™ 3000 SRLCnano HPLC system (Thermo Scientific) coupled to a TSQ QUANTUM™ ULTRA (Thermo Scientific) triple quadrupole. PINPOINT™ software was used for method development and the optimization of the mass spectrometer parameters, as well as for peptide quantification. […]
Thirty-two C57BL/6J mice 8-weeks old were selected and randomly separated. […] Glucose levels were measured at 20, 40, 80 and 140 minutes after glucose administration in a glucose time test (GTT). […]

[2] = test system: mice fed high fat diet (HFD); experiment: Fasting glucose and glucose tolerance test in HFD mice (Example 11); format: in vivo, C57BL/6J mice; conditions: two weeks
Protocol: Thirty-two C57BL/6J mice 8-weeks old were selected and randomly separated. The mice (n=8) were fed ad libitum for two weeks with either CHOW diet or high fat diet (HFD, 60% of fat content). Each group was divided in half 8 animals received regular water and the other 8 received (S)-2-amino-6-((3-aminopropyl)amino)hexanoic acid dihydrochloride dissolved in water so as to administer about 10 mg/kg of the drug body weight per mouse, per day. As an additional experimental control (n=8), a group of mice receiving HFD also received pioglitazone (10 mg/kg). Poglitazone is a well-known anti-diabetic agent. It has the ability to increase glucose uptake into the cells. […] At the end of the two weeks, animals were fasted for 5 hours, weighed, and their tails were clipped to measure fasting blood glucose levels. Immediately after, glucose was administered intraperitoneally (1 mg/g of body weight). Glucose levels were measured at 20, 40, 80 and 140 minutes after glucose administration in a glucose time test (GTT). Animals were euthanized under anesthesia (isoflurane). Blood, liver, fat and muscle tissues were collected and flash frozen for the studies. […]

db/db mice = experiment: Glucose tolerance test in leptin receptor knock-out (db/db) mice; format: in vivo
Protocol: Leptin receptor knock-out (db/db) mice have severe, rapid, spontaneous and early-onset obesity and insulin resistance that is first recognizable at 4 weeks of age. These animals (5 for each group) were used to determine the effect of (S)-2-amino-6-((3-aminopropyl)amino)hexanoic acid dihydrochloride on impaired glucose tolerance at pre-diabetes level. The groups consisted of (i) db/db mice administered 50 mg/kg b.i.d. p.o. (S)-2-amino-6-((3-aminopropyl)amino)hexanoic acid dihydrochloride; (ii) db/db vehicle control-treated mice; and (iii) heterozygous littermate control mice. The treatment period was for 7 days. Glucose tolerance tests were performed as described above.
To determine the effect of (S)-2-amino-6-((3-aminopropyl)amino)hexanoic acid dihydrochloride on impaired glucose tolerance after diabetes is established, 6 week old db/db mice were treated with the drug (50 mg/kg b.i.d. p.o.) for 14 days. The positive control group was treated with metformin at the same dose. […] The results establish that the drug can be used to treat both pre-diabetes, and diabetes wherein the diabetic phenotype has been established.
To assess whether (S)-2-amino-6-((3-aminopropyl)amino)hexanoic acid dihydrochloride delays progression to diabetes or only masks diabetes during treatment period, (i) db/db mice (ii) db/db vehicle control-treated mice; and (iii) heterozygous littermate control mice were treated with and without (S)-2-amino-6-((3-aminopropyl)amino)hexanoic acid dihydrochloride or metformin (50 mg/kg b.i.d. p.o.) for 14 days. The 14 day treatment period was followed by another 14 day period (“wash out period”) in which no treatment was given.

For `NCCCNCCCC[C@H](N)C(=O)O` [APL, (S)-2-amino-6-((3-aminopropyl)amino)hexanoic acid dihydrochloride], the solubility ([1]; DMSO, organic solvent or mixture, read-out: solubility in DMSO) was ≥ 10 mM, the solubility ([1]; phosphate buffered saline (PBS) without Ca or Mg, aqueous buffer, PBS pH 7.4 without Ca or Mg, 200 μM = maximum concentration tested, read-out: solubility in PBS) was > 0.2 mM and the solubility ([1]; water, read-out: solubility in water) was ≥ 10 mM. For the same molecule, the “reduction of GLUT4 carbonylations in adipose tissue” value (GLUT4) was “about 50%”, the glucose tolerance test ([2]; 10 mg/kg, glucose 1 mg/g i.p., FIG. 8C) was “drastically improved” and the fasting glucose levels ([2]; about 10 mg/kg per day, 5 hours fasted, FIG. 8B) was “reduced fasting glucose levels”. For the same molecule, the “impaired glucose tolerance after diabetes is established” value (db/db mice; 6 week old db/db mice, 50 mg/kg b.i.d. p.o., 14 days, vs metformin at the same dose, FIG. 11) was “better in reducing impaired glucose tolerance than metformin”, the “impaired glucose tolerance after wash out period” value (db/db mice; db/db mice, 50 mg/kg b.i.d. p.o. 14 days, then 14 days no treatment, FIG. 12) was “still effective in reducing impaired glucose tolerance even after 14 days following treatment removal” and the “impaired glucose tolerance, pre-diabetic stage” value (db/db mice; pre-diabetic db/db mice, 50 mg/kg b.i.d. p.o., 7 days, FIG. 10) was “normalizes impaired glucose tolerance”.
